Among the data in patent publication US7300930B2, “Therapeutic acridone and acridine compounds” (Cancer Research Technology Limited, priority 2000, dated 2007) are IC50 values, retold here.

A short description of data set [1]: Growth inhibition, sulforhodamine B (SRB) assay, SKOV-3. The data set is classed as cell-based. The conditions noted are these: human, SKOV-3 ovarian carcinoma cells, SKOV-3, 96 hr incubation, tested as salts, read-out: Cytotoxicity - IC50 SKOV-3. As to the method: (§1) Growth inhibition was measured in three human ovarian carcinoma cell lines (A2780, CH1, and SKOV-3) and one human cervix carcinoma cell line (A431) using the sulforhodamine B (SRB) assay. Briefly, between 3000 and 6000 cells were seeded into the wells of 96-well microtiter plates and allowed to attach overnight. Compounds (acid addition and quaternary dimethiodide salts) were dissolved at 500 μM in water and immediately added to wells in quadruplicate at final concentrations of 0.05, 0.25, 1, 5 and 25 μM. Following an incubation period of 96 hr, remaining cells were fixed with ice-cold 10% w/v trichloroacetic acid (30 min) and stained with 0.4% SRB in 1% v/v acetic acid (15 min). Mean absorbance at 540 nm for each drug concentration was expressed as a percentage of the control untreated well absorbance, and IC50 values (concentration required to inhibit cell growth by 50%) were determined for each agent.

A short description of data set [2]: Growth inhibition, sulforhodamine B (SRB) assay, CH1. Particulars: human, CH1 ovarian carcinoma cells, CH1, 96 hr incubation, tested as salts, read-out: Cytotoxicity - IC50 CH1. The data set is classed as cell-based. As to the method:
as §1

The nature of data set [3]: Growth inhibition, sulforhodamine B (SRB) assay, A2780. The data set is classed as cell-based. Particulars: human, A2780 ovarian carcinoma cells, A2780, 96 hr incubation, tested as salts, read-out: Cytotoxicity - IC50 A2780. As to the method: as §1
Data set [4] has as its target telomerase (Homo sapiens, UniProt O14746). Kind of data set: Modified telomeric repeat amplification protocol (TRAP) assay, cell-free. The data set is classed as biochemical. Particulars: extracts from A2780 cells, tested as salts, read-out: telIC50 (Telomerase Inhibitory Activity). The procedure:
The ability of compounds to inhibit telomerase in a cell-free assay was assessed with a modified TRAP assay using extracts from exponentially growing A2780 human ovarian carcinoma cells. The TRAP assay was performed in 2 steps: (a) telomerase-mediated extension of the forward primer (TS: 5′-AATCCGTCGAGCAGAGTT (SEQ ID NO:3), Oswel Ltd., Southampton, UK) contained in a 40 µL reaction mix comprising TRAP buffer (20 mM Tris-HCl (pH 8.3), 68 mM KCl, 1.5 mM MgCl2, 1 mM EGTA, 0.05% v/v Tween 20), 0.05 μg bovine serum albumin, 50 μM of each deoxynucleotide triphosphate, 0.1 μg TS primer, and 3 μCi of [α-^32P]dCTP (Amersham plc, UK). Protein (40 ng or 20 ng) was then incubated with the reaction mix+agent (acid addition and quaternary dimethiodide salts) at final concentrations of up to 50 μM for 20 min at 25° C. A lysis buffer (no protein) control, heat-inactivated protein control, and 50% protein (20 ng or 10 ng) control were included in each assay; and (b) while heating at 80° C. in a PCR block of a thermal cycler (Hybaid, UK) for 5 min to inactivate telomerase activity, 0.1 μg of reverse CX primer (3′-[…]-5′ (SEQ ID NO:4)) and 2 Units of Taq DNA polymerase (“red hot”, Advanced Biotechnologies) were added. A 3-step PCR was then performed: 94° C. for 30 s, 50° C. for 30 s, and 72° C. for 1 min for 31 cycles. Telomerase-extended PCR products in the presence or absence of compounds were then determined either by electrophoretic separation using 8% w/w acrylamide denaturing gels and analysis by phosphorimaging or autoradiography, or by harvesting on Whatman filters (25 mm glass microfibre) and analysis by liquid scintillation counting.

The nature of data set [5]: Growth inhibition, sulforhodamine B (SRB) assay, A431. Format: cell-based. The conditions noted are these: human, A431 cervix carcinoma cells, A431, 96 hr incubation, tested as salts, read-out: Cytotoxicity - IC50 A431. The procedure:
as §1

Bounds are passed on as bounds.

Chain of telomerase (O14746 whole entry): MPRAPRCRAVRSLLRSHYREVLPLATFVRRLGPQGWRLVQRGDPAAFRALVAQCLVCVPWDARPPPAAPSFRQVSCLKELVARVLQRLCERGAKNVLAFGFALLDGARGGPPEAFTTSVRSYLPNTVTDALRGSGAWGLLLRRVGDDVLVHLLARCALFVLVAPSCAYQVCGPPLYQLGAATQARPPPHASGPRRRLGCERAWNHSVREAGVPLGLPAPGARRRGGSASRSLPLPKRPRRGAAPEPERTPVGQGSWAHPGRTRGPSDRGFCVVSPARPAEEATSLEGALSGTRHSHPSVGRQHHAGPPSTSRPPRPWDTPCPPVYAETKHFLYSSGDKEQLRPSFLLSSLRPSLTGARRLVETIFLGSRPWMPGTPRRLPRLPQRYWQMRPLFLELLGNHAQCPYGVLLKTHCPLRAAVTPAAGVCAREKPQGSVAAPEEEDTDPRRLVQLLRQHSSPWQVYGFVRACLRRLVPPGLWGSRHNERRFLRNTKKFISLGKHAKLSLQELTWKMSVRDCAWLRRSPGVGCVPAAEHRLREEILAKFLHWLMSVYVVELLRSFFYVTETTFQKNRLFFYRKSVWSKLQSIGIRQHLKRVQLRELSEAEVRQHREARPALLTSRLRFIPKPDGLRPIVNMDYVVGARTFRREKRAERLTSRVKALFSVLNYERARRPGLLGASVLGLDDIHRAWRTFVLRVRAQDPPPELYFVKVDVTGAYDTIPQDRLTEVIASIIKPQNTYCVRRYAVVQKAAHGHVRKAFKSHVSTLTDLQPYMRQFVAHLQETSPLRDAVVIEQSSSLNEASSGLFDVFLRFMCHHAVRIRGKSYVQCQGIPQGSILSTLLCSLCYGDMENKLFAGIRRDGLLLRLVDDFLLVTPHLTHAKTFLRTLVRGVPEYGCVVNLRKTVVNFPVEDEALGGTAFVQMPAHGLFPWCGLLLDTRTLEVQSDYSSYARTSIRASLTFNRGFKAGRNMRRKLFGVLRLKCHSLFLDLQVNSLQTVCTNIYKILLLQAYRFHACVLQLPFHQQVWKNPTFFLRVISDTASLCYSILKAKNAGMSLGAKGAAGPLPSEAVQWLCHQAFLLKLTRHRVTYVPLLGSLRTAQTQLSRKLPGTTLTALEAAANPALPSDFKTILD

Turning to `CN1CCN(CCC(=O)Nc2ccc3[nH]c4ccc(NC(=O)CCN5CCN(C)CC5)cc4c(=O)c3c2)CC1` [JH-ACO-28, 2,7-Bis[3-(4′-N-methyl)piperizinopropionamido]-9(10H)-acridone], the IC50 at 96 h in data set [1], in data set [2], in data set [3] and in data set [5] was above 25 µM each time. Moreover, the IC50 in data set [4] was found to be 0.66 µM.
Regarding `O=C(CCN1CCCC1)Nc1ccc2c(NC3CCCCC3)c3ccc(NC(=O)CCN4CCCC4)cc3nc2c1` [JH-ACI-82, N-[9-(Cyclohexylamino)]-3,6-bis(3-pyrrolidinopropionamido)acridine], the IC50 at 96 h came to 1.1 µM in data set [1], 2.8 µM in data set [2], 12.5 µM in data set [3] and 2.5 µM in data set [5]. Further, the IC50 in data set [4] worked out at 0.09 µM.
Taken in the same sequence, the figures for `COCCNc1c2ccc(NC(=O)CCN3CCCC3)cc2nc2cc(NC(=O)CCN3CCCC3)ccc12` [JH-ACI-86, N-[9-(2-Methoxy-ethylamino)]-3,6-bis(3-pyrrolidinopropionamido)acridine] were 17.8 µM, 3.2 µM, 10 µM, 10 µM and 0.14 µM.
For `CSc1ccccc1Nc1c2ccc(NC(=O)CCN3CCCC3)cc2nc2cc(NC(=O)CCN3CCCC3)ccc12` [JC-ACI-4, N-{9-[2′-(Methylsulfanyl)phenylamino]}-3,6-bis(3-pyrrolidinopropionamido)acridine], the IC50 in data set [4] was 0.15 µM. The IC50 at 96 h in data set [5] worked out at 2.5 µM.
For `O=C(CCN1CCCC1)Nc1ccc2c(Nc3ccc(F)cc3)c3ccc(NC(=O)CCN4CCCC4)cc3nc2c1` [JC-ACI-3, N-{9-[4′-Fluorophenylamino]}-3,6-bis(3-pyrrolidinopropionamido)acridine] the same measures were 0.07 µM and 2.5 µM.
For `CC1CCCCN1CCC(=O)Nc1ccc2nc3ccc(NC(=O)CCN4CCCCC4C)cc3c(O)c2c1` (stereo not drawn) [JM-ACO-07, 2,7-Bis[3-(2-methylpiperidino)propionamido]-9(10H)-acridone], the IC50 at 96 h in data set [1], in data set [2], in data set [3] and in data set [5] was above 25 µM each time. Moreover, in data set [4], the IC50 was found to be 1.97 µM.
As to `Nc1ccccc1Nc1c2ccc(NC(=O)CCN3CCCC3)cc2nc2cc(NC(=O)CCN3CCCC3)ccc12` [JH-ACI-76, N-[9-(2′-(Amino)phenylamino)]-3,6-bis(3-pyrrolidinopropionamido)acridine], the IC50 at 96 h in data set [1] was found to be 15.8 µM; in data set [2], 10 µM; in data set [3] it was 11 µM; in data set [5], 7.1 µM. Moreover, the IC50 in data set [4] came out at 0.02 µM.
Consider `Nc1cccc(Nc2c3ccc(NC(=O)CCN4CCCC4)cc3nc3cc(NC(=O)CCN4CCCC4)ccc23)c1` [JH-ACI-74, N-{9-[3′-(Amino)phenylamino]}-3,6-bis(3-pyrrolidinopropionamido)acridine], for which the IC50 at 96 h in data set [1] is above 25 µM; in data set [2], 15.8 µM; in data set [3] it was 12.6 µM; in data set [5], 12.6 µM. Besides, in data set [4], the IC50 was 0.06 µM.
As for `O=C(CCN1CCC(O)CC1)Nc1ccc2nc3ccc(NC(=O)CCN4CCC(O)CC4)cc3c(O)c2c1` [JM-ACO-09, 2,7-Bis[3-(4-hydroxypiperidino)propionamido]-9(10H)-acridone], the IC50 at 96 h in data set [1], in data set [2], in data set [3] and in data set [5] was above 25 µM in each case. In addition, in data set [4], the IC50 is 1.58 µM.
As to `CCN(CC)CCC(=O)Nc1ccc2c(=O)c3ccc(NC(=O)CCN(CC)CC)cc3[nH]c2c1` [BR-ACO-7, 3,6-Bis[3-(diethylamino)propionamido]-9(10H)-acridone], the IC50 at 96 h in data set [1], in data set [2] and in data set [3] was above 25 µM in each case. The IC50 in data set [4] amounted to 5.7 µM.
For `CC1CCN(CCC(=O)Nc2ccc3c(=O)c4ccc(NC(=O)CCN5CCC(C)CC5)cc4[nH]c3c2)CC1` [BR-ACO-33, 3,6-Bis[3-(4-methylpiperidino)propionamido]-9(10H)-acridone], the IC50 at 96 h was 5.6 µM in data set [1], 3 µM in data set [2] and 3 µM in data set [3]. Further, the IC50 in data set [4] was found to be 1.9 µM.
Take `O=C(CCN1CCC(O)CC1)Nc1ccc2c(O)c3ccc(NC(=O)CCN4CCC(O)CC4)cc3nc2c1` [BR-ACO-34, 3,6-Bis[3-(4-hydroxypiperidino)propionamido]-9(10H)-acridone]: the IC50 at 96 h in data set [1], in data set [2] and in data set [3] was above 25 µM each time. Besides, the IC50 in data set [4] was determined as 1.8 µM.
Take `O=C(CCN1CCCC1)Nc1ccc2c(=O)c3ccc(NC(=O)CCN4CCCC4)cc3[nH]c2c1` [BR-ACO-4, 3,6-Bis[3-(pyrrolidino)propionamido]-9(10H)-acridone]: the IC50 at 96 h in data set [1], in data set [2] and in data set [3] was above 25 µM in each case. For the same compound, in data set [4], the IC50 was determined as 8 µM.
Consider `CN(C)CCC(=O)Nc1ccc2c(=O)c3ccc(NC(=O)CCN(C)C)cc3[nH]c2c1` [BR-ACO-6, 3,6-Bis[3-(dimethylamino)propionamido]-9(10H)-acridone], for which the IC50 at 96 h in data set [1], in data set [2] and in data set [3] was above 25 µM throughout. Further, the IC50 in data set [4] was determined as 4.3 µM.
In the case of `CCN1CCN(CCC(=O)Nc2ccc3c(=O)c4ccc(NC(=O)CCN5CCN(CC)CC5)cc4[nH]c3c2)CC1` [BR-ACO-39], the IC50 at 96 h in data set [1], in data set [2] and in data set [3] was above 25 µM in each case. In addition, the IC50 in data set [4] turned out to be 0.74 µM.
For the compound `CCC1CCCCN1CCC(=O)Nc1ccc2c(=O)c3ccc(NC(=O)CCN4CCCCC4CC)cc3[nH]c2c1` (stereo not drawn) [BR-ACO-37, 3,6-Bis[3-(2-ethylpiperidino)propionamido]-9(10H)-acridone], the IC50 at 96 h in data set [1] came to 10.5 µM; in data set [2] it was 11 µM; in data set [3] it was 11.8 µM. The IC50 in data set [4] came to 1.6 µM.
With `O=C(CCN1CCOCC1)Nc1ccc2c(O)c3ccc(NC(=O)CCN4CCOCC4)cc3nc2c1` [BR-ACO-8, 3,6-Bis[3-(morpholino)propionamido]-9(10H)-acridone], the IC50 at 96 h in data set [1], in data set [2] and in data set [3] was above 25 µM throughout. For the same compound, in data set [4], the IC50 amounted to 49 µM.
For `O=C(CCN1CCCCC1)Nc1ccc2c(=O)c3ccc(NC(=O)CCN4CCCCC4)cc3[nH]c2c1` [BR-ACO-5, 3,6-Bis[3-(piperidino)propionamido]-9(10H)-acridone], the IC50 at 96 h in data set [1] is 21 µM; in data set [2], 13 µM; in data set [3], 19 µM. In addition, in data set [4], the IC50 was 5.9 µM.
Taken in the same sequence, the figures for `O=C(CCN1CCCCC1)Nc1ccc2nc3ccc(NC(=O)CCN4CCCCC4)cc3c(O)c2c1` [BR-ACO-10, 2,7-Bis[3-(piperidino)propionamido]-9(10H)-acridone] were above 25 µM, above 25 µM, above 25 µM and 5.8 µM.
With `CC1CCCCN1CCC(=O)Nc1ccc2c(=O)c3ccc(NC(=O)CCN4CCCCC4C)cc3[nH]c2c1` (stereo not drawn) [BR-ACO-36, 3,6-Bis[3-(2-methylpiperidino)propionamido]-9(10H)-acridone], the values for the IC50 at 96 h in data set [1], in data set [2] and in data set [3] were 12 µM, 11.8 µM and 13 µM, respectively. Moreover, the IC50 in data set [4] was found to be 3.3 µM.
As to `O=C(CCN1CCCC1)Nc1ccc2nc3ccc(NC(=O)CCN4CCCC4)cc3c(O)c2c1` [BR-ACO-9, 2,7-Bis[3-(pyrrolidino)propionamido]-9(10H)-acridone], the IC50 at 96 h in data set [1], in data set [2] and in data set [3] was above 25 µM in each case. Also, the IC50 in data set [4] worked out at 2.8 µM.
